Reference: patent publication US10381110B2, “Molecules” (University of Dundee, priority 2010, dated 2019)

Assays:
dopamine D4 [1] = molecular target: T1, dopamine D4 (Homo sapiens, UniProt P21917); details: previously reported analogue; read-out: dopamine D4 Ki (literature); cited from earlier work
T1 sequence (P21917 1-419): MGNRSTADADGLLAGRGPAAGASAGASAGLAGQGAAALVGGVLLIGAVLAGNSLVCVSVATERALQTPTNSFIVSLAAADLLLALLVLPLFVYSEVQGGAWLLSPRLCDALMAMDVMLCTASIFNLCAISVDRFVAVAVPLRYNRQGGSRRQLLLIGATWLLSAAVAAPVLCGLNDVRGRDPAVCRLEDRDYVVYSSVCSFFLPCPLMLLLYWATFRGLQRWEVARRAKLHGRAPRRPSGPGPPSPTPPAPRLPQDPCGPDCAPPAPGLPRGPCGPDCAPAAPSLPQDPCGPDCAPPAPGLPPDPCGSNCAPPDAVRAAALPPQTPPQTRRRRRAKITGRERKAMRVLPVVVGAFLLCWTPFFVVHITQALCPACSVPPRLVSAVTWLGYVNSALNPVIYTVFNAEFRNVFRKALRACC

dopamine D2 [2] = molecular target: T2, dopamine D2 (Homo sapiens, UniProt P14416); details: read-out: dopamine D2 Ki (literature); previously assayed analogue; cited from earlier work
Target sequence in this assay (P14416 whole entry): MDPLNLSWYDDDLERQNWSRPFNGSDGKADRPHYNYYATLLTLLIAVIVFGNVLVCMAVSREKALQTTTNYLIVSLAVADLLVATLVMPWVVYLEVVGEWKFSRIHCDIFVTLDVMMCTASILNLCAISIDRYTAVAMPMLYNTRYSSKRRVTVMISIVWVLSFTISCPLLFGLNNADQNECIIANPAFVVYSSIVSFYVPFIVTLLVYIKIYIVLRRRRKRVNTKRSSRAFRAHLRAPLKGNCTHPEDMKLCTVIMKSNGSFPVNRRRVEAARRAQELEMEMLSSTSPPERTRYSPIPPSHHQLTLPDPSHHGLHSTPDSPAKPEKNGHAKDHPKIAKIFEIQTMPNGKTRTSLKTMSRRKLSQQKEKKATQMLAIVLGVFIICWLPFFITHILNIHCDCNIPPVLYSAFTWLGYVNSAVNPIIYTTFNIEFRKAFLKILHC

5HT1a = molecular target: T3, 5HT1a (Homo sapiens, UniProt P08908); test: Secondary radioligand binding assay (Ki)
T3 sequence (P08908 1-422): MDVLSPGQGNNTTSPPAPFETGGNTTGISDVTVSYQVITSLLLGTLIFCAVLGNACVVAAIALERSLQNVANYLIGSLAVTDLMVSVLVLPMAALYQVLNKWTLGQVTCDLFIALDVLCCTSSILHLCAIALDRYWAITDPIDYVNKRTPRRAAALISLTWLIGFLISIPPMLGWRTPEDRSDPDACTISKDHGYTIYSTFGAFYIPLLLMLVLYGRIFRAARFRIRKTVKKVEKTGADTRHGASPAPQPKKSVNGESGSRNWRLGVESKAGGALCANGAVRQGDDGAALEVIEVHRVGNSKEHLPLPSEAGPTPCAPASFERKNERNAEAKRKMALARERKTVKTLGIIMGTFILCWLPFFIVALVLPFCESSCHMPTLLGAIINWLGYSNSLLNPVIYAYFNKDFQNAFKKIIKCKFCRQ

α1A (Alpha1A) = molecular target: T4, α1A (Alpha1A) (Homo sapiens, UniProt P35348); test: Secondary radioligand binding assay (Ki)
T4 sequence (P35348 1-466): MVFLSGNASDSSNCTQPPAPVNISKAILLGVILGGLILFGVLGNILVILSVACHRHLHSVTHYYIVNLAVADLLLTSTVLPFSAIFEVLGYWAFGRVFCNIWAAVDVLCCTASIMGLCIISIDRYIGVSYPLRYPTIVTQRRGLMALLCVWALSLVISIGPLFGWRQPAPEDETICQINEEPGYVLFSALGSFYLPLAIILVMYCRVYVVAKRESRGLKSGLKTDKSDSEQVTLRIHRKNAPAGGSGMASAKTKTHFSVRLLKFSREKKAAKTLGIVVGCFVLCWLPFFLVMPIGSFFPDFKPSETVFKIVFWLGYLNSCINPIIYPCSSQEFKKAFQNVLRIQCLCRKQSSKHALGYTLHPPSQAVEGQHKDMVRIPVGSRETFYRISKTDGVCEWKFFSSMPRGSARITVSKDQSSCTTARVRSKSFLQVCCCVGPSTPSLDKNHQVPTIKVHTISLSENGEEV

5-HT2B = 5-HT2B (Homo sapiens, UniProt P41595); test: Secondary radioligand binding assay (Ki)
5-HT7 = 5-HT7 (Homo sapiens, UniProt P34969); test: Secondary radioligand binding assay (Ki)
Alpha1A = molecular target: T5, Alpha1A (Homo sapiens, UniProt P35348); test: Primary radioligand binding assay (NIMH PDSP); details: primary radiobinding assay, [3H]Prazosin; note: test concentration or dose not given here
T5 sequence (P35348 1-466): T4 sequence (P35348 1-466)

Alpha1B = molecular target: T6, Alpha1B (Homo sapiens, UniProt P35368); test: Primary radioligand binding assay (NIMH PDSP); details: primary radiobinding assay, [3H]Prazosin; note: test concentration or dose not given here
T6 sequence (P35368 1-520): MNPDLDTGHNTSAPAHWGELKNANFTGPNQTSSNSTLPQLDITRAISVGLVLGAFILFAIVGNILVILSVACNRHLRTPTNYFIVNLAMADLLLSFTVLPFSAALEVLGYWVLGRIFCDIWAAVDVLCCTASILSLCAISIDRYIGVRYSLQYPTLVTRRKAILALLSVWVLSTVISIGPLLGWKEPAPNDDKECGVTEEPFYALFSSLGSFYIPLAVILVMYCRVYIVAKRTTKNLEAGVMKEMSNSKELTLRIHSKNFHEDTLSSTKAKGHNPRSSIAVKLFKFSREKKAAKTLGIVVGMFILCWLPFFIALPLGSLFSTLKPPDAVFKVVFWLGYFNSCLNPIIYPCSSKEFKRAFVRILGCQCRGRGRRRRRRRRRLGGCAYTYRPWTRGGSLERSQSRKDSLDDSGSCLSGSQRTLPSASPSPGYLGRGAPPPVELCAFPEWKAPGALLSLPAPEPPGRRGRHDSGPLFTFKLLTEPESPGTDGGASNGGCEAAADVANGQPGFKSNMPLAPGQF

Alpha1D = molecular target: T7, Alpha1D (Homo sapiens, UniProt P25100); test: Primary radioligand binding assay (NIMH PDSP); details: primary radiobinding assay, [3H]Prazosin
T7 sequence (P25100 1-572): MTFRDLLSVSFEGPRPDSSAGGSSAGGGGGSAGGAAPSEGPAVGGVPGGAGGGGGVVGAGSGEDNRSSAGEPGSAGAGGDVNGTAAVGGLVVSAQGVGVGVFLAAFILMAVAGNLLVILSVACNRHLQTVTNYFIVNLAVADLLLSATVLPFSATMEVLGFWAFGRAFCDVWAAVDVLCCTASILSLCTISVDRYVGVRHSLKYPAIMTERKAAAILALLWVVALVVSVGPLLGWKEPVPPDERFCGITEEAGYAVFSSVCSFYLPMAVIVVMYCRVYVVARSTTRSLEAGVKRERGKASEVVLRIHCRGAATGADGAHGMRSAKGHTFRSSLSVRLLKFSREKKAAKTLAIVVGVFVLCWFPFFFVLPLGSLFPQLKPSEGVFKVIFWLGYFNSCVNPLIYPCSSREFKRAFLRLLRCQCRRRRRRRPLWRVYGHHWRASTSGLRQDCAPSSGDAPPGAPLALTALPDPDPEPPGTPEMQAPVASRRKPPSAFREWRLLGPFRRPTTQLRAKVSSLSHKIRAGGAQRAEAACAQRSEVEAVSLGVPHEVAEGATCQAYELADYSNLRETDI

dopamine D1 = dopamine D1 (Homo sapiens, UniProt P21728); test: Primary radioligand binding assay (NIMH PDSP); details: primary radiobinding assay, [3H]SCH233930; note: test concentration or dose not given here
dopamine D2 [3] = molecular target: T2, dopamine D2; test: Primary radioligand binding assay (NIMH PDSP); details: primary radiobinding assay, [3H]N-methylspiperone; for D4 (% inh): test concentration or dose not given here
Target sequence in this assay (P14416 whole entry, species assumed): as the sequence (P14416 whole entry) above

dopamine D3 = dopamine D3 (Homo sapiens, UniProt P35462); test: Primary radioligand binding assay (NIMH PDSP); details: primary radiobinding assay, N-methylspiperone; note: test concentration or dose not given here
dopamine D5 = dopamine D5 (Homo sapiens, UniProt P21918); test: Primary radioligand binding assay (NIMH PDSP); details: primary radiobinding assay, [3H]SCH233930; note: test concentration or dose not given here
dopamine D4 [4] = molecular target: T1, dopamine D4; test: Primary radioligand binding assay (NIMH PDSP); details: primary radiobinding assay, N-methylspiperone; for D4 (% inh): test concentration or dose not given here

Sequence of 5-HT7 (P34969 whole entry, species assumed): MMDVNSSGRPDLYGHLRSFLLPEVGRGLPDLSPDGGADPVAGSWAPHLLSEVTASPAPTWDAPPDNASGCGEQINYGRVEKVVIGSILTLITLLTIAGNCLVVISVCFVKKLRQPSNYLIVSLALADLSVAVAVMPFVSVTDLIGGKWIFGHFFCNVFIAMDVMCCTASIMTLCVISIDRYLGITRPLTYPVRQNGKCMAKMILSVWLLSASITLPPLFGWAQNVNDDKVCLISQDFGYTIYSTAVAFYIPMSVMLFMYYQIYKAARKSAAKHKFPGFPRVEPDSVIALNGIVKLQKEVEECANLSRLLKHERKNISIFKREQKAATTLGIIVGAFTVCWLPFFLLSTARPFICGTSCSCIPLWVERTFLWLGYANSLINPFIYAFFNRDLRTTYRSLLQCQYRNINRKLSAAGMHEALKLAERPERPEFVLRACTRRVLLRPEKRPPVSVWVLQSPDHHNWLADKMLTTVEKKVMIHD
Sequence of dopamine D1 (P21728 whole entry): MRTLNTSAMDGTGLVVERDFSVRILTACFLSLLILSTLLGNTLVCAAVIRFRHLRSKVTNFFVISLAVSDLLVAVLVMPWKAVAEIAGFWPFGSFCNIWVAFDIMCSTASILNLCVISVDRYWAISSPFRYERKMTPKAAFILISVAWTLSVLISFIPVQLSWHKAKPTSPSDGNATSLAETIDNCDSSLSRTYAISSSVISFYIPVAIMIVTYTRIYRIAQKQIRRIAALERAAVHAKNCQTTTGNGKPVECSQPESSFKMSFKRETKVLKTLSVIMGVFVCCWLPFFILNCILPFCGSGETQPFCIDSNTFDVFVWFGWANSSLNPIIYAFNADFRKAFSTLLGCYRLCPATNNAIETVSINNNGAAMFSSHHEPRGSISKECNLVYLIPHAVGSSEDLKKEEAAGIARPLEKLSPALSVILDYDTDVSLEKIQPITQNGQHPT
Sequence of 5-HT2B (P41595 whole entry, species assumed): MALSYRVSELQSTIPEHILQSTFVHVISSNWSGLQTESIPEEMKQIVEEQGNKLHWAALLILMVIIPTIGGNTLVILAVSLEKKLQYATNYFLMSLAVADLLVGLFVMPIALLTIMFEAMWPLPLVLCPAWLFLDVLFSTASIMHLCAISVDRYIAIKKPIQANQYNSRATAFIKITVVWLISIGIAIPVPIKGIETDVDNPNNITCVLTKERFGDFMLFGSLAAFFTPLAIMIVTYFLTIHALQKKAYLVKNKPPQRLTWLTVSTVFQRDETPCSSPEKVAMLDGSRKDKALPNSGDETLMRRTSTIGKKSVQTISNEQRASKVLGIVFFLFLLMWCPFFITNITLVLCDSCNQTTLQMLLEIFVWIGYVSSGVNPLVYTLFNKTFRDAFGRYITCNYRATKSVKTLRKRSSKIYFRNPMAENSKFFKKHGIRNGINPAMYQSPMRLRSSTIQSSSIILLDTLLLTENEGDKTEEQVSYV
Sequence of dopamine D5 (P21918 whole entry): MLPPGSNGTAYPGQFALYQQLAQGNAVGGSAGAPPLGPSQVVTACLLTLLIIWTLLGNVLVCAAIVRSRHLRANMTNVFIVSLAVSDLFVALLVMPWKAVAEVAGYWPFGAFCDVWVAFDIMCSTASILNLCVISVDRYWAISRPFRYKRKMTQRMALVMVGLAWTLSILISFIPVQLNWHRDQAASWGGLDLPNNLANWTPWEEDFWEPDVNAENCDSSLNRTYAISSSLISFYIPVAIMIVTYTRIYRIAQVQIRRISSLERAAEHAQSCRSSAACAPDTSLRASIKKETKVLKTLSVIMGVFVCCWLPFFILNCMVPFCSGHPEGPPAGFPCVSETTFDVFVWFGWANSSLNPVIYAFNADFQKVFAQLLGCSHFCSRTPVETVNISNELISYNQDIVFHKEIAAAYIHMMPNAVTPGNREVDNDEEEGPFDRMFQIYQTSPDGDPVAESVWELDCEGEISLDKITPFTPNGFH
Sequence of dopamine D3 (P35462 whole entry): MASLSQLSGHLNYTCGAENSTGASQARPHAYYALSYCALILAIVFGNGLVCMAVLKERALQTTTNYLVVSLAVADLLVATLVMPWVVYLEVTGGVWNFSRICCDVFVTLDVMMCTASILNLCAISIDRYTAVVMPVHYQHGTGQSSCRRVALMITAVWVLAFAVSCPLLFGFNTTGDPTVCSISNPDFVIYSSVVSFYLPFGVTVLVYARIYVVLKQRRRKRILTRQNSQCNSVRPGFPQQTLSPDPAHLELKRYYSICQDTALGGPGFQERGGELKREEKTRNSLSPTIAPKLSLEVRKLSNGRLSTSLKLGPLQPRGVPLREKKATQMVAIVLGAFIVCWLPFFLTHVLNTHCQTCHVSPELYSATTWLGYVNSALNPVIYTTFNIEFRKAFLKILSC

Ki (5HT1a) [nM]	Ki (α1A (Alpha1A)) [nM]	Ki (5-HT2B) [nM]	Ki (5-HT7) [nM]	Alpha1A (% inh) (Alpha1A)	Alpha1B (% inh) (Alpha1B)	Alpha1D (% inh) (Alpha1D)	D1 (% inh) (dopamine D1)	D3 (% inh) (dopamine D3)	D5 (% inh) (dopamine D5)	SMILES	Ki (dopamine D4 [1]) [nM]	Ki (dopamine D2 [2]) [nM]	D2 (% inh) (dopamine D2 [3])	D4 (% inh) (dopamine D4 [4])
–	–	–	–	–	–	–	–	–	–	O=C1c2ccccc2CN1CCCCN1CCN(c2ccccc2)CC1 [2-(4-(4-Phenyl-1-piperazinyl)butyl)-1-isoindolinone]	134	319	–	–
8430	2010	1450	2820	64.8	−19.8	31.1	−1	51	18	CC1Cc2ccccc2N1C(=O)CN1CCN(c2ccccc2)CC1 (stereo not drawn) [STT-00185641]	–	–	2	–
–	–	–	–	–	–	–	–	–	–	COc1cc2c(cc1OC)C(=O)C(CC1CCN(Cc3ccccc3)CC1)C2 (stereo not drawn) [donepezil, reference compound]	–	–	18.6	89.2
